Columns and labels:
Format in all cases: cell-based, mouse
RAW264.7 cells = assay: Pit assay on Corning Osteo Surface, RAW264.7-derived osteoclasts; settings: sRANKL-activated RAW264.7 cells, 7 days, FIG. 2B
Experimental: FIGS. 2A-2D are data collected from RAW264.7 cells respectively incubated in the medium containing sRANKL (50 ng/ml) and specified concentrations of MLN4924 for 7 days according to example 1.2 of the present disclosure. FIG. 2A: the photographs of TRAP staining depicting the differentiation of osteoclasts from RAW264.7 cells. FIG. 2B: after the differentiation of osteoclasts in Corning Osteo Surface, the cells were removed, and the resorbed areas for confirming osteoclast activity were analyzed by 1% toluidine blue staining. FIG. 2C: the culture medium is subject to Biovision Cathepsin K Activity Fluorometric Assay Kit for the analysis of cathepsin K activity. FIG. 2D: the effect of effective doses of MLN4924 on the viability of RAW264.7 cells is evaluated by MTT assay. Scale bar represents 100 μm. Data are expressed as mean±SD where *p<0.05.
The pre-osteoclasts and RAW264.7 cells were seeded into Corning Osteo Surface Assay 96-wells plate (Corning, Kennebunk, Me.). Twenty-four hours later, the cells were treated with sRANKL (50 ng/ml) and specified concentrations of MLN4924 for 7 days. The cells were then harvested so as to evaluate the cathepsin K activity by use of Biovision Cathepsin K Activity Fluorometric Assay Kit (Biovision, Milpitas, Calif.). The Corning Osteo surface was stained with 1% toluidine blue for 24 hours and washed with deionized water twice. […]

JNK (pJNK) = assay: Western blot, sRANKL-induced JNK phosphorylation in RAW264.7 cells; settings: RAW264.7, 30 min pre-treatment, sRANKL 50 ng/ml, FIG. 3A-3B
Experimental: FIGS. 3A-3D are data collected from Western blot analysis that respectively depict the expression of specified protein extracted from the RAW264.7 cells, which are pre-treated with specified concentrations of MLN4924 for 30 minutes followed by the stimulation of sRANKL (50 ng/ml) according to example 2 of the present disclosure. FIG. 3A: the time course effect of MLN4924 on the phosphorylations of ERK (pERK), P38 (pP38) and JNK (pJNK). FIG. 3B: the dose effect of MLN4924 on the phosphorylations of ERK (pERK), P38 (pP38) and JNK (pJNK). FIG. 3C: the time course effect of MLN4924 on the expression of NFATc-1. FIG. 3D: the dose effect of MLN4924 on the expression of NFATc-1. Mock: untreated control; R: sRANKL; M: MLN4924.
The RAW264.7 cells were starved with serum-free medium for six hours and then treated with the specified treatments. At indicated time points, the cells were washed with cold phosphate-buffered saline (PBS) and lysed in RIPA buffer containing complete protease inhibitor cocktail (Roche). The cell lysates were separated by SDS-PAGE followed by Western blotting with the indicated antibodies, including NEDD8, APPBP1, UBA3.
Specifically, the inhibitory effect increased with an increase in the MLN4924 concentration (FIG. 3B).

cathepsin K = assay: Cathepsin K activity fluorometric assay, BMMs; settings: FIG. 1C
Experimental: FIGS. 1A-1D are data collected from primary mouse bone marrow-derived macrophages (BMMs) respectively incubated in the medium containing the soluble recombinant RANKL (sRANKL, 50 ng/ml), macrophage colony-stimulating factor (M-CSF, 40 ng/ml) and specified concentrations of MLN4924 for 7 days according to example 1.1 of the present disclosure. FIG. 1A: the photographs of TRAP staining depicting the differentiation of osteoclasts from BMMs. FIG. 1B: after the differentiation of osteoclasts in Corning Osteo Surface (a synthetic 3-dimensional structure that mimics in vivo bone for in vitro bone cell assays), the cells were removed, and the resorbed areas for confirming osteoclast activity were analyzed by 1% toluidine blue staining. FIG. 1C: the culture medium is subject to Biovision Cathepsin K Activity Fluorometric Assay Kit for the analysis of cathepsin K activity. FIG. 1D: the effect of effective doses of MLN4924 on the viability of BMMs is evaluated by MTT assay. Scale bar represents 100 μm. Data are expressed as mean±SD where *p<0.05; **p<0.01.
The pre-osteoclasts and RAW264.7 cells were seeded into Corning Osteo Surface Assay 96-wells plate (Corning, Kennebunk, Me.). Twenty-four hours later, the cells were treated with sRANKL (50 ng/ml) and specified concentrations of MLN4924 for 7 days. […]

NS(=O)(=O)OC[C@@H]1C[C@@H](n2ccc3c(N[C@H]4CCc5ccccc54)ncnc32)C[C@@H]1O [MLN4924, (1S,2S,4R)-4-(4-((1S)-2,3-Dihydro-1H-inden-1-ylamino)-7H-pyrrolo(2,3-d)pyrimidin-7-yl)-2-hydroxycyclopentyl) methyl sulphamate]
bone matrix resorption of osteoclasts (RAW264.7 cells): significantly inhibited | sRANKL-upregulated phosphorylation of JNK (pJNK) (JNK (pJNK)): inhibited | basal activity of cathepsin K (cathepsin K; MLN4924 alone without sRANKL): did not affect the basal activity of cathepsin K in macrophages | activity of cathepsin K versus sRANKL group (cathepsin K; with sRANKL): significantly reduced the activity of cathepsin K

From US10285994B2, “Method of preventing or treating osteoporosis by neddylation inhibitor” (Chang Gung University, priority 2017, dated 2019)
